Results from US5064953A, “Intermediates cephalosporin derivatives” (Mochida Pharmaceutical Co., Ltd., priority 1983, dated 1991).
Values after ≈ are worked out from the molar mass of the structure shown.

Tests used:
Test in all cases: Antibacterial activity in vitro, agar plate dilution method (MIC)
Assay type in all cases: cell-based
[1] = system: Pseudomonas aeruginosa IF03445; conditions: 10^6 cells/ml, Mueller Hinton agar, 37° C., 20 hours
Description: (§1) Antibacterial activity in vitro was determined in accordance with the agar plate dilution method. A platinum loop each of test bacteria (10^6 cells/ml), cultured in Mueller Hinton broth, was inoculated on Mueller Hinton agar plates which contained test compounds at various concentrations. After cultivating at 37° C. for 20 hours, the minimum inhibitory concentration (MIC μg/ml) was determined.

[2] = system: Klebsiella pneumoniae IF03317; conditions: 10^6 cells/ml, Mueller Hinton agar, 37° C., 20 hours
Description: as §1

Escherichia coli 67 = conditions: 10^6 cells/ml, Mueller Hinton agar, 37° C., 20 hours
Description: as §1

Proteus morganii IF03848 = conditions: Morganella morganii, 10^6 cells/ml, Mueller Hinton agar, 37° C., 20 hours
Description: as §1

[3] = system: Staphylococcus aureus Smith; conditions: 10^6 cells/ml, Mueller Hinton agar, 37° C., 20 hours
Description: as §1

[4] = system: Serratia marcescens IF03759; conditions: 10^6 cells/ml, Mueller Hinton agar, 37° C., 20 hours
Description: as §1

Row | MIC [1] | MIC [2] | MIC (Escherichia coli 67) | MIC (Proteus morganii IF03848) | MIC [3] | MIC [4] | SMILES
1 | 25 µg/mL (≈ 36.5 µM) | < 0.05 µg/mL | 0.2 µg/mL (≈ 0.292 µM) | 0.78 µg/mL (≈ 1.14 µM) | 1.57 µg/mL (≈ 2.29 µM) | 0.2 µg/mL (≈ 0.292 µM) | Cc1cc(SCC2=C(C(=O)O)N3C(=O)[C@@H](NC(=O)/C(=N\OC(=O)c4ccc[nH]4)c4csc(N)n4)[C@H]3SC2)n2nc(C(=O)O)nc2n1 [Compound 26, (6R,7R)-7-[2-(2-amino-4-thiazolyl)-2-[Z-(2-pyrrolecarbonyl)oxyimino]acetamido]-3-[(2-carboxy-5-methyl-s-triazolo[1,5-a]pyrimidin-7-yl)thiomethyl]-8-oxo-5-thia-1-azabicyclo[4.2.0]oct-2-ene-2-carboxylic acid]
2 | > 100 µg/mL | < 0.05 µg/mL | < 0.05 µg/mL | 0.1 µg/mL (≈ 0.144 µM) | 0.39 µg/mL (≈ 0.56 µM) | < 0.05 µg/mL | Cc1cc(SCC2=C(C(=O)O)N3C(=O)[C@@H](NC(=O)/C(=N\OC(=O)c4cccnc4)c4csc(N)n4)[C@H]3SC2)n2nc(C(=O)O)nc2n1 [Compound 11, (6R,7R)-7-[2-(2-amino-4-thiazolyl)-2-[Z-(3-pyridinecarbonyl)oxyimino]acetamido]-3-[(2-carboxy-5-methyl-s-trizolo[1,5-a]pyrimidin-7-yl)thiomethyl]-8-oxo-5-thia-1-azabicyclo[4.2.0]oct-2-ene-2-carboxylic acid]
3 | 12.5 µg/mL (≈ 20.6 µM) | < 0.05 µg/mL | 0.2 µg/mL (≈ 0.33 µM) | 0.78 µg/mL (≈ 1.29 µM) | 3.13 µg/mL (≈ 5.17 µM) | 0.2 µg/mL (≈ 0.33 µM) | CO/N=C(\C(=O)N[C@@H]1C(=O)N2C(C(=O)O)=C(CSc3cc(C(=O)O)nc4nnc(C)n34)CS[C@H]12)c1csc(N)n1 [Compound 20, (6R,7R)-7-[2-(2-amino-4-thiazolyl)-2-(Z-methoxyimino)acetamido]-3-[(7-carboxy-3-methyl-s-triazolo[4,3-a]pyrimidin-5-yl)thiomethyl]-8-oxo-5-thia-1-azabicyclo[4.2.0]oct-2-ene-2-carboxylic acid]
4 | 50 µg/mL (≈ 86.6 µM) | < 0.05 µg/mL | 0.1 µg/mL (≈ 0.173 µM) | 0.78 µg/mL (≈ 1.35 µM) | 3.13 µg/mL (≈ 5.42 µM) | 0.39 µg/mL (≈ 0.675 µM) | CO/N=C(\C(=O)N[C@@H]1C(=O)N2C(C(=O)O)=C(CSc3nnc4cc(C)nc(O)n34)CS[C@H]12)c1csc(N)n1 [Compound 23, (6R,7R)-7-[2-(2-amino-4-thiazolyl)-2-(Z-methoxyimino)acetamido]-3 [(5-hydroxy-7-methyl-s-triazolo[4,3-c]pyrimidin-3-yl)thiomethyl]-8-oxo-5-thia-1-azabicyclo[4.2.0]oct-2-ene-2-carboxylic acid]
5 | 25 µg/mL (≈ 40.3 µM) | < 0.05 µg/mL | 0.2 µg/mL (≈ 0.323 µM) | 0.78 µg/mL (≈ 1.26 µM) | 3.13 µg/mL (≈ 5.05 µM) | 0.1 µg/mL (≈ 0.161 µM) | CO/N=C(\C(=O)N[C@@H]1C(=O)N2C(C(=O)O)=C(CSc3cc(C)nc4nc(CC(=O)O)nn34)CS[C@H]12)c1csc(N)n1 [Compound 4, (6R,7R)-7-[2-(2-amino-4-thiazolyl)-2-(Z-methoxyimino)acetamido]-3-[(2-carboxymethyl-5-methyl-s-triazolo[1,5-a]pyrimidin-7-yl)thiomethyl]-8-oxo-5-thia-1-azabicyclo[4.2.0]oct-2-ene-2-carboxylic acid]
6 | > 100 µg/mL | < 0.05 µg/mL | < 0.05 µg/mL | 0.39 µg/mL (≈ 0.614 µM) | 12.5 µg/mL (≈ 19.7 µM) | 0.39 µg/mL (≈ 0.614 µM) | CO/N=C(\C(=O)N[C@@H]1C(=O)N2C(C(=O)O)=C(CSc3c(C(=O)O)cnc4nc(C(=O)O)nn34)CS[C@H]12)c1csc(N)n1 [Compound 7, (6R,7R)-7-[2-(2-amino-4-thiazolyl)-2-(Z-methoxyimino)acetamido]-3-[(2,6-dicarboxy-s-triazolo[1,5-a]pyrimidin-7-yl)thiomethyl]-8-oxo-5-thia-1-azabicyclo[4.2.0]oct-2-ene-2-carboxylic acid]
7 | 50 µg/mL (≈ 84.5 µM) | < 0.05 µg/mL | 0.1 µg/mL (≈ 0.169 µM) | 0.2 µg/mL (≈ 0.338 µM) | 3.13 µg/mL (≈ 5.29 µM) | < 0.05 µg/mL | CO/N=C(\C(=O)N[C@@H]1C(=O)N2C(C(=O)O)=C(CSc3ccnc4nc(C(=O)O)nn34)CS[C@H]12)c1csc(N)n1 [Compound 14, (6R,7R)-7-[2-(2-amino-4-thiazolyl)-2-(Z-methoxyimino)acetamido]-3-[(2-carboxy-s-triazolo[1,5-a]pyrimidin-7-yl)thiomethyl]-8-oxo-5-thia-1-azabicyclo[4.2.0]oct-2-ene-2-carboxylic acid]
8 | > 100 µg/mL | 0.1 µg/mL (≈ 0.165 µM) | 0.78 µg/mL (≈ 1.28 µM) | 3.13 µg/mL (≈ 5.15 µM) | 25 µg/mL (≈ 41.1 µM) | 1.57 µg/mL (≈ 2.58 µM) | CO/N=C(\C(=O)N[C@@H]1C(=O)N2C(C(=O)O)=C(CSc3nnc4nc(C(=O)O)cc(O)n34)CS[C@H]12)c1csc(N)n1 [Compound 21, (6R,7R)-7-[2-(2-amino-4-thiazolyl)-2-(Z-methoxyimino)acetamido]-3-[(7-carboxy-5-hydroxy-s-triazolo[4,3-a]pyrimidin-3-yl)thiomethyl]-8-oxo-5-thia-1-azabicyclo[4.2.0]oct-2-ene-2-carboxylic acid]
9 | 100 µg/mL (≈ 156 µM) | < 0.05 µg/mL | < 0.05 µg/mL | 0.78 µg/mL (≈ 1.22 µM) | 0.39 µg/mL (≈ 0.608 µM) | 0.2 µg/mL (≈ 0.312 µM) | CO/N=C(\C(=O)N[C@@H]1C(=O)N2C(C(=O)O)=C(CSc3cc(C)nc4nc(S(=O)(=O)O)nn34)CS[C@H]12)c1csc(N)n1 [Compound 18, (6R,7R)-7-[2-(2-amino-4-thiazolyl)-2-(Z-methoxyimino)acetamido]-3-[(2 hydroxysulfonyl-5-methyl-s-triazolo[1,5-a]pyrimidin-7-yl)thiomethyl]-8-oxo-5-thia-1-azabicyclo[4.2.0]oct 2-ene-2-carboxylic acid]
10 | 12.5 µg/mL (≈ 20.6 µM) | < 0.05 µg/mL | 0.39 µg/mL (≈ 0.642 µM) | 0.78 µg/mL (≈ 1.28 µM) | 12.5 µg/mL (≈ 20.6 µM) | 0.1 µg/mL (≈ 0.165 µM) | CO/N=C(\C(=O)N[C@@H]1C(=O)N2C(C(=O)O)=C(CSc3cc(O)nc4nc(C(=O)O)nn34)CS[C@H]12)c1csc(N)n1 [Compound 15]
11 | 50 µg/mL (≈ 71.9 µM) | < 0.05 µg/mL | 0.1 µg/mL (≈ 0.144 µM) | 0.39 µg/mL (≈ 0.561 µM) | 0.39 µg/mL (≈ 0.561 µM) | 0.1 µg/mL (≈ 0.144 µM) | Cc1cc(SCC2=C(C(=O)O)N3C(=O)[C@@H](NC(=O)/C(=N\OC(=O)c4ccccc4)c4csc(N)n4)[C@H]3SC2)n2nc(C(=O)O)nc2n1 [Compound 25, (6R,7R)-7-[2-(2-amino-4-thiazolyl)-2-(Z-benzoyloxyimino)acetamido]-3 [(2-carboxy-5-methyl-s-triazolo[1,5-a]pyrimidin-7-yl)thiomethyl]8-oxo-5-thia-1-azabicyclo[4.2.0]oct-2-ene 2-carboxylic acid]
12 | 25 µg/mL (≈ 33.8 µM) | 0.39 µg/mL (≈ 0.527 µM) | 0.39 µg/mL (≈ 0.527 µM) | 0.78 µg/mL (≈ 1.05 µM) | 0.78 µg/mL (≈ 1.05 µM) | 0.39 µg/mL (≈ 0.527 µM) | Cc1cc(SCC2=C(C(=O)O)N3C(=O)[C@@H](NC(=O)/C(=N\OC(=O)c4ccc5c(c4)OCO5)c4csc(N)n4)[C@H]3SC2)n2nc(C(=O)O)nc2n1 [Compound 12]

Row | SMILES | MIC [1] | MIC [2] | MIC (Escherichia coli 67) | MIC (Proteus morganii IF03848) | MIC [3] | MIC [4]
13 | CC(=O)Oc1ccc(C(=O)O/N=C(\C(=O)N[C@@H]2C(=O)N3C(C(=O)O)=C(CSc4cc(C)nc5nc(C(=O)O)nn45)CS[C@H]23)c2csc(N)n2)cc1OC(C)=O [Compound 27, (6R,7R)-7-[2-(2-amino-4-thiazolyl)-2-[Z-(3,4-diacetoxybenzoyl)oxyimino]acetamido]-3-[(2-carboxy-5-methyl-s-triazolo[1,5-a]pyrimidin-7-yl)thiomethyl]-8-oxo-5-thia-1-azabicyclo[4.2.0]oct-2-ene-2-carboxylic acid] | 0.39 µg/mL (≈ 0.48 µM) | < 0.05 µg/mL | < 0.05 µg/mL | 0.2 µg/mL (≈ 0.246 µM) | 1.57 µg/mL (≈ 1.93 µM) | < 0.05 µg/mL
